Results as given in publication PMC6271978, “1H-2,3-Dihydroperimidine Derivatives: A New Class of Potent Protein Tyrosine Phosphatase 1B Inhibitors” (Molecules, 2013).

How the values were obtained:
[1] = system: tyrosine phosphorylation of insulin receptor β in CHO/hIR cells; assay: Tyrosine phosphorylation of insulin receptor in CHO/hIR cells (Western blot); type: cell-based, hamster CHO cells expressing human insulin receptor; settings: compound 5 µM to 20 µM for 3 h, insulin 10 nM 10 min, versus DMSO
Description: To explore the effect of PTP1B inhibitor in vitro on insulin signaling, CHO cells overexpressing human insulin receptor (CHO/hIR) were treated in presence or absence of compound, then tyrosine phosphorylation level of insulin receptor (p-IR) was detected after stimulated by insulin.
CHO/hIR cells were cultured in F12 nutrient medium including 10% (V/V) FBS, 100 units/mL penicillin and 100 μg/mL streptomycin with 5% CO2 at 37 °C. Cells were serum free starved for 2 h, and then treated with compounds for 3 h, followed with insulin (10 nM, Eli Lilly) for 10 min before harvested. Cells were rinsed twice with precooled 1× PBS and then lysed with 1× SDS loading buffer. Samples were heated at 100 °C for 15 min before electrophoresed with 8% SDS-polyarylamide gel under 80 to 120 volt voltage, and then transferred to nitrocellulose (NC) membranes. NC membranes were blocked for 2 h with 5% BSA (W/V) dissolved in TBST. The membranes incubated with primary antibodies overnight at 4 °C and secondary antibodies for 1 h at room temperature. The primary antibody p-Tyr (PY20) used was from Santa Cruz (Dallas, CA, USA) and β-actin from Sigma (St. Louis, MO, USA), secondary antibody was from Jackson Immuno Research (Philadelphia, PA, USA).

[2] = biological target: T1, SHP-2 (Homo sapiens, UniProt Q06124); assay: SHP-2 inhibition, OMFP substrate assay; type: biochemical
T1 construct: made in house
T1 sequence (Q06124 1-593): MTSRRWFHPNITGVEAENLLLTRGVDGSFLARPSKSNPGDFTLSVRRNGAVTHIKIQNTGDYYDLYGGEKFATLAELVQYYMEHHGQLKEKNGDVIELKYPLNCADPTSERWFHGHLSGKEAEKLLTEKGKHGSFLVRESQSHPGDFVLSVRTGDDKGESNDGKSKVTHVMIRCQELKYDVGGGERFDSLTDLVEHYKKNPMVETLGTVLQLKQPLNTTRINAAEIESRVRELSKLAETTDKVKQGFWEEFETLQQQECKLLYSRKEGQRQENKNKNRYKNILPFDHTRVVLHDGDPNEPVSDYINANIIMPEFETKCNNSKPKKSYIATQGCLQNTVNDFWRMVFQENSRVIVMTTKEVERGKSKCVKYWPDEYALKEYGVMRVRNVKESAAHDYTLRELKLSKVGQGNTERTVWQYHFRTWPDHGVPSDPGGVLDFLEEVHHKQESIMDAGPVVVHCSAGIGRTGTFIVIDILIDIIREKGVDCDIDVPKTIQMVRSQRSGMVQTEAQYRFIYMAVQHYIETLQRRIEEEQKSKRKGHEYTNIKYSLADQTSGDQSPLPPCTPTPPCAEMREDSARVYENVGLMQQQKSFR
Description: (§1) In addition to potency improvements, we investigated the selectivity of three representative compounds, namely, 1, 46 and 49 against other PTPs (TCPTP, SHP-1, SHP-2, LAR). […] Besides TCPTP, we tested the inhibitory activity of these compounds on other three homogenous enzymes SHP-1, SHP-2, and LAR [25].
(§2) A colorimetric assay to measure inhibition against PTP1B and TCPTP was performed in 96-well plates. Briefly, the tested compounds were solubilized in DMSO and serially diluted into concentrations for the inhibitory test. The assays were carried out in a final volume of 100 μL containing 50 mmol/L MOPS, pH 6.5, 2 mmol/L pNPP, 30 nmol/L GST-PTP1B or GST-TCPTP,and 2% DMSO, and the catalysis of pNPP was continuously monitored on a SpectraMax 340 microplate reader at 405 nm for 3 min at 30 °C. The IC50 value was calculated from the nonlinear curve fitting of the percent inhibition [inhibition (%)] vs. the inhibitor concentration using the Equation (1): Inhibition (%) = 100/[1 + (IC50/[I]k)] (1) where k is the Hill coefficient. To study the inhibition on the other PTPase family members, SHP1, SHP2 and LAR were prepared and assays were performed according to procedures described previously. Briefly, the enzymatic activity of the SHP1, SHP2 and LARwere determined at 30 °C by monitoring the dephosphorylation of substrate 3-o-methylfluorescein phosphate (OMFP), product was then detected at a 485 nm excitation wavelength and 530 nm emission wavelength by the EnVision multilabe plate reader (Perkin-Elmer Life Sciences, Boston, MA, USA). The assays were carried out in a final volume of 50 μL containing 50 mmol/L MOPS, pH 6.8, 10 μmol/L OMFP, 20 nmol/L recombinant enzyme, 2 mmol/L dithiothreitol , 1 mmol/L EDTA, and 2% DMSO. The initial rate of the dephosphorylation was presented by the early linear region of the enzymatic reaction kinetic curve, the inhibitory activity of the compound was continuously monitored.

[3] = biological target: T2, PTP1B (GST-PTP1B) (Homo sapiens, UniProt P18031); assay: PTP1B inhibition, colorimetric pNPP assay; type: biochemical; settings: pNPP substrate
T2 sequence (P18031 1-435): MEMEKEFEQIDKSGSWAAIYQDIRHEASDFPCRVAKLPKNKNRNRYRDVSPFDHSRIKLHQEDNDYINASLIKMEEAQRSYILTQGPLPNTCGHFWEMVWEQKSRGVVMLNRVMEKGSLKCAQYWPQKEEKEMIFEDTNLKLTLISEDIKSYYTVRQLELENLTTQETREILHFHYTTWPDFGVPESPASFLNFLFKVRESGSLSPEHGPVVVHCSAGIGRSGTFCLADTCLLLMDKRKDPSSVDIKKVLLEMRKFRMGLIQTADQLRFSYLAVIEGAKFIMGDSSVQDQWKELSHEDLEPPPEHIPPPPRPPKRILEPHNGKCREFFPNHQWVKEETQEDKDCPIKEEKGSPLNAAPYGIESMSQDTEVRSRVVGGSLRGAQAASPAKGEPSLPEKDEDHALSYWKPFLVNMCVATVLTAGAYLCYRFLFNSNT

[4] = biological target: T3, LAR (Homo sapiens, UniProt P10586); assay: LAR inhibition, OMFP substrate assay; type: biochemical; settings: NA = no activity (inhibitory ratio lower than 50% at the dose of 20 μg/mL), PC = Na3VO4
T3 sequence (P10586 1352-1607 limits assumed): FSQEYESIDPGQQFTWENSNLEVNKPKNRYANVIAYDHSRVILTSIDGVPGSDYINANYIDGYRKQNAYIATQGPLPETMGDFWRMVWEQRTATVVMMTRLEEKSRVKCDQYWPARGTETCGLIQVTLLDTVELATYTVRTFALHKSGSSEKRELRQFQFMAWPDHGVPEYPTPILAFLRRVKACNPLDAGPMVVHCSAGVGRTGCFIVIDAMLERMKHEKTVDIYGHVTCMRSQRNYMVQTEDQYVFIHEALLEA
Description: as §1
as §2, with “To study the inhibition on the other PTPase family members, SHP1, SHP2 and LAR were prepared and assays were performed according to procedures described previously.” left out, “The assays were carried out in a final volume of 50 μL containing 50 mmol/L MOPS, pH 6.8, 10 μmol/L OMFP, 20 nmol/L recombinant enzyme, 2 mmol/L dithiothreitol , 1 mmol/L EDTA, and 2% DMSO. The initial rate of the dephosphorylation was presented by the early linear region of the enzymatic reaction kinetic curve, the inhibitory activity of the compound was continuously monitored.” left out

[5] = means ± SD of three replications, OA/PC = oleanolic acid positive control

SMILES: O=C(O)CNC(=O)c1ccc(C2Nc3cccc4cccc(c34)N2)nc1 [Compound 46]
- tyrosine phosphorylation level of insulin receptor (p-IR) [1]: greatly improved p-IR level
- IC50 ([2]; OMFP substrate, means ± SD of three replications, PC = Na3VO4): 5.95 ± 0.29 µM
- selectivity for PTP1B over SHP-2 ([2]; from IC50 values): about 9 fold
- inhibition at 20 µg/mL ([3]; PTP1B, compound at 20 μg/mL): 99.5%
- IC50 [3, 5]: 0.66 ± 0.03 µM
- IC50 PTP1B [3, 5]: submicromolar
- IC50 LAR [4]: no visible activities
